Assay results reported in PMC9551036, “A selective and orally bioavailable VHL-recruiting PROTAC achieves SMARCA2 degradation in vivo” (Nature Communications, 2022).
“And” between values parts separate entries of the source, which are not always exact repeats. Equal entries are not always repeated.

Legend:
[1] = system: proteome of NCI-H1568 cells; assay: Whole cell unbiased proteomics (TMT) in NCI-H1568 cells; type: cell-based, human; settings: for Rel. Int.: TMT reporter intensity relative to DMSO 1; for Rel. Int. / Normalised: replicates 1-3; for average: average of normalised replicates; for log2: log2 fold change vs DMSO; for Normalised: normalised relative intensity
Method: Cells were seeded at 5 × 10^6 cells on a 100 mm plate 24 h before treatment. Cells were treated in triplicate by addition of test compounds at 100 nM. After 4 h, the cells were washed twice with 10 ml cold PBS and lysed in 500 µL of 100 mM TEAB with 5% (w/v) SDS. The lysate was pulse sonicated briefly and then centrifuged at 15,000 × g for 10 min. Samples were quantified using a micro-BCA protein assay kit (Thermo Fisher Scientific). 300 µg of each sample was reduced with DTT, alkalised with iodoacetamide and double-digested with trypsin using the modified S-TRAP mini (ProtiFi) protocol. Peptide quantification was done using Pierce™ Quantitative Fluorometric Peptide Assay and equal amount from each sample was labelled using TMTpro^TM 16plex Label Reagent Set (Thermo Fisher Scientific) as per the manufacturer’s instructions. The samples were then pooled and desalted using a 7 mm, 3 mL C18 SPE cartridge column (Empore, 3 M). The pooled and desalted sample was fractionated using high pH reverse-phase chromatography on an XBridge peptide BEH column (130 Å, 3.5 μm, 2.1 × 150 mm, Waters) on an Ultimate 3000 HPLC system (Thermo Scientific/Dionex). Buffers A (10 mM ammonium formate in water, pH 9) and B (10 mM ammonium formate in 90% acetonitrile, pH 9) were used over a linear gradient of 2% to 100% buffer B over 80 min at a flow rate of 200 μL/min. 80 fractions were collected using a WPS-3000 FC auto-sampler (Thermo Scientific) before concatenation into 20 fractions based on the UV signal of each fraction. All the fractions were dried in a Genevac EZ-2 concentrator and resuspended in 1% formic acid for MS analysis. The fractions were analysed sequentially on a Q Exactive HF Hybrid Quadrupole-Orbitrap Mass Spectrometer (Thermo Scientific) coupled to an Dionex Ultimate 3000 RS (Thermo Scientific). […] The column temperature was 50 °C. The mass spectrometer was operated in data dependent mode with a single MS survey scan from 335 to 1600 m/z followed by 15 sequential m/z dependent MS2 scans. The 15 most intense precursor ions were sequentially fragmented by higher energy collision dissociation (HCD). The MS1 isolation window was set to 0.7 m/z and the resolution set at 120,000. MS2 resolution was set at 60,000. The AGC targets for MS1 and MS2 were set at 3 × 10^6 ions and 1 × 10^5 ions, respectively. The normalised collision energy was set at 32%. The maximum ion injection times for MS1 and MS2 were set at 50 ms and 200 ms, respectively. The mass accuracy was checked before the initiation of sample analysis. The raw MS data files for all 20 fractions were merged and searched against the Uniprot-sprot-Human-Canonical database (FASTA file released in November 2019) by Maxquant software 2.0.3.0 for protein identification and TMT reporter ion quantitation. The Maxquant parameters were set as follows: enzyme used Trypsin/P; maximum number of missed cleavages equal to two; precursor mass tolerance equal to 10 p.p.m.; fragment mass tolerance equal to 20 p.p.m.; variable modifications: oxidation (M), dioxidation (MW), acetyl (N-term), deamidation (NQ), Gln -> pyro-Glu (Q N-term); fixed modifications: carbamidomethyl (C). Peptide and protein data was filtered by applying a 1% false discovery rate followed by exclusion of proteins with less than two unique peptides. Quantified proteins were filtered if the absolute fold-change difference between the three DMSO replicates was ≥1.5.

[2] = system: panel of cell lines (A549, HCC-364, HCC-515, HCC4006, KYSE-30, LU99, LXFA_629L, LXFA_923L, LXFL_529L, LXFL_1121L, MP38, NCI-H23, NCI-H1355, OV-90, SK-MEL-5 …); assay: Cell viability assay (CellTiter Glo) in a panel of cell lines; type: cell-based, human;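 as to % Viability: percent of DMSO-treated control cells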
Method: 500–2000 cells were seeded in white, clear bottom 96-well plates (Corning or Perkin Elmer) in 180–200 µl medium per well. The next day, compounds were added using a digital dispenser and a T0 sample was measured for reference. Cells were incubated for 144–192 h, and viability (luminescence) was measured using CellTiter Glo or CellTiter Glo 2.0 (Promega) according to manufacturer’s instructions after equilibrating cells and reagents at room temperature and 10–20 min incubation time while shaking.

[3] = protein SIK1 (LOC102724428;SIK1)

Cc1ncsc1-c1ccc([C@H](CC[C@H](C)CCN2CCC(c3ccc4c(c3)n(C3CCCC3)c3nc(=O)c5c(Br)cccc5n43)CC2)NC(=O)[C@@H]2C[C@H](O)CN2C(=O)[C@@H](NC(=O)C2(F)CC2)C(C)(C)C)cc1 [compound 12]
-logP [1]: 0.0276
Rel. Int. ([1]; protein BRPF1 (P55201)): 0.90 and 0.91 (2×)
average ([1]; protein BRPF1 (P55201)): 0.99
log2 ([1]; protein BRPF1 (P55201)): -0.0113
Normalised ([1]; protein BRPF1 (P55201)): 0.98 (2×) and 1.02
Rel. Int. ([1]; protein ETS1 (P14921)): 0.94 and 0.98 and 0.91
average ([1]; protein ETS1 (P14921)): 1.03
log2 ([1]; protein ETS1 (P14921)): 0.05
Normalised ([1]; protein ETS1 (P14921)): 1.04 and 1.05 and 1.02
Rel. Int. ([1]; protein PBRM1 (Q86U86)): 0.85 and 0.92 and 0.84
average ([1]; protein PBRM1 (Q86U86)): 0.95
log2 ([1]; protein PBRM1 (Q86U86)): -0.07
Normalised ([1]; protein PBRM1 (Q86U86)): 0.93 and 0.98 and 0.94
Rel. Int. [1, 3]: 0.93 and 0.92 and 0.88
average [1, 3]: 1.00
log2 [1, 3]: -0.00277
Normalised [1, 3]: 1.02 and 0.98 and 0.99
Rel. Int. ([1]; protein SMARCA2 (P51531)): 0.90 and 0.92 and 0.88
average ([1]; protein SMARCA2 (P51531)): 0.99
log2 ([1]; protein SMARCA2 (P51531)): -0.0184
Normalised ([1]; protein SMARCA2 (P51531)): 0.99 (2×) and 0.98

Cc1ncsc1-c1ccc(C(CCC(C)CCN2CCC(c3ccc4c(c3)n(C3CCCC3)c3nc(=O)c5c(Br)cccc5n43)CC2)NC(=O)C2CC(O)CN2C(=O)C(NC(=O)C2(F)CC2)C(C)(C)C)cc1 (stereo not drawn) [ACBI2]
HillSlope (viability) ([2]; A549): -0.487
% Viability ([2]; A549, log10 conc -7 mol/l): 47.919% and 42.1211%
% Viability ([2]; A549, log10 conc -7.50031 mol/l): 60.413% and 52.9594%
% Viability ([2]; A549, log10 conc -8 mol/l): 70.4787% and 68.1265%
% Viability ([2]; A549, log10 conc -8.50031 mol/l): 100.959% and 102.653%
HillSlope (viability) ([2]; HCC4006): -2.51
% Viability ([2]; HCC4006, log10 conc -7.10735 mol/l): 106.752% and 106.118%
% Viability ([2]; HCC4006, log10 conc -8.31158 mol/l): 118.541% and 111.324%
HillSlope (viability) ([2]; HCC-364): -2.992
% Viability ([2]; HCC-364, log10 conc -7.10735 mol/l): 39.6895% and 65.8316%
% Viability ([2]; HCC-364, log10 conc -8.31158 mol/l): 101.18% and 100.543%
HillSlope (viability) ([2]; HCC-515): -0.931
% Viability ([2]; HCC-515, log10 conc -7 mol/l): 21.3218% and 22.1794%
% Viability ([2]; HCC-515, log10 conc -7.50031 mol/l): 21.1243% and 26.9825%
% Viability ([2]; HCC-515, log10 conc -8 mol/l): 34.5235% and 34.7052%
% Viability ([2]; HCC-515, log10 conc -8.50031 mol/l): 51.5226% and 47.9218%
HillSlope (viability) ([2]; KYSE-30): -1.122
% Viability ([2]; KYSE-30, log10 conc -7.10735 mol/l): 99.6818% and 96.2107%
% Viability ([2]; KYSE-30, log10 conc -8.31158 mol/l): 107.107% and 103.099%
HillSlope (viability) ([2]; LU99): -1.519
% Viability ([2]; LU99, log10 conc -7.10735 mol/l): 81.59% and 77.7555%
% Viability ([2]; LU99, log10 conc -8.31158 mol/l): 123.387% and 114.143%
HillSlope (viability) ([2]; LXFA_629L): -0.7355
% Viability ([2]; LXFA_629L, log10 conc -7 mol/l): 28.2712% and 27.4037%
% Viability ([2]; LXFA_629L, log10 conc -7.50031 mol/l): 41.2713% and 34.5184%
% Viability ([2]; LXFA_629L, log10 conc -8 mol/l): 57.9035% and 54.0045%
% Viability ([2]; LXFA_629L, log10 conc -8.50031 mol/l): 89.2294% and 82.1746%
HillSlope (viability) ([2]; LXFA_923L): -0.4788
% Viability ([2]; LXFA_923L, log10 conc -7.50031 mol/l): 31.729% and 41.6954%
% Viability ([2]; LXFA_923L, log10 conc -8 mol/l): 41.6215% and 47.8343%
% Viability ([2]; LXFA_923L, log10 conc -8.50031 mol/l): 63.1043% and 68.2132%
HillSlope (viability) ([2]; LXFL_529L): -0.4813
% Viability ([2]; LXFL_529L, log10 conc -7.50031 mol/l): 17.7092% and 18.3663%
% Viability ([2]; LXFL_529L, log10 conc -8 mol/l): 23.2341% and 22.4794%
% Viability ([2]; LXFL_529L, log10 conc -8.50031 mol/l): 25.5623% and 26.9316%
HillSlope (viability) ([2]; LXFL_1121L): -1.483
% Viability ([2]; LXFL_1121L, log10 conc -7.50031 mol/l): 92.1257% and 100.242%
% Viability ([2]; LXFL_1121L, log10 conc -8 mol/l): 96.5968% and 112.339%
% Viability ([2]; LXFL_1121L, log10 conc -8.50031 mol/l): 103.275% and 116.726%
HillSlope (viability) ([2]; MP38): -1.603
% Viability ([2]; MP38, log10 conc -7.50031 mol/l): 10.4737% and 10.5264%
% Viability ([2]; MP38, log10 conc -8 mol/l): 48.5822% and 44.1126%
% Viability ([2]; MP38, log10 conc -8.50031 mol/l): 84.8854% and 80.6261%
HillSlope (viability) ([2]; NCI-H23): -0.9596
% Viability ([2]; NCI-H23, log10 conc -7.10735 mol/l): 77.4555% and 94.2831%
% Viability ([2]; NCI-H23, log10 conc -8.31158 mol/l): 93.614% and 103.354%
HillSlope (viability) ([2]; NCI-H1355): -1.475
% Viability ([2]; NCI-H1355, log10 conc -8.31158 mol/l): 91.2593% and 85.8715%
HillSlope (viability) ([2]; OV-90): -0.9956
% Viability ([2]; OV-90, log10 conc -7.10735 mol/l): 57.2489% and 75.2258%
% Viability ([2]; OV-90, log10 conc -8.31158 mol/l): 97.3183% and 109.838%
HillSlope (viability) ([2]; SK-MEL-5): -1.006
% Viability ([2]; SK-MEL-5, log10 conc -7.10735 mol/l): 3.91% and 3.091%
% Viability ([2]; SK-MEL-5, log10 conc -8.31158 mol/l): 29.6092% and 31.0459%
HillSlope (viability) ([2]; TOV-112D): -1.255
% Viability ([2]; TOV-112D, log10 conc -7.10735 mol/l): 105.246% and 100.431%
% Viability ([2]; TOV-112D, log10 conc -8.31158 mol/l): 103.581% and 98.4682%
-logP [1]: 4.42
Rel. Int. ([1]; protein BRPF1 (P55201)): 0.86 and 0.73 and 0.58
average ([1]; protein BRPF1 (P55201)): 0.72
log2 ([1]; protein BRPF1 (P55201)): -0.46
Normalised ([1]; protein BRPF1 (P55201)): 0.74 and 0.73 and 0.70
Rel. Int. ([1]; protein ETS1 (P14921)): 1.29 and 1.11 and 0.95
average ([1]; protein ETS1 (P14921)): 1.13
log2 ([1]; protein ETS1 (P14921)): 0.17
Normalised ([1]; protein ETS1 (P14921)): 1.12 (2×) and 1.14
Rel. Int. ([1]; protein PBRM1 (Q86U86)): 0.41 and 0.40 and 0.32
average ([1]; protein PBRM1 (Q86U86)): 0.38
log2 ([1]; protein PBRM1 (Q86U86)): -1.40
Normalised ([1]; protein PBRM1 (Q86U86)): 0.36 and 0.40 and 0.39
Rel. Int. [1, 3]: 1.44 and 1.21 and 1.03
average [1, 3]: 1.24
log2 [1, 3]: 0.30
Normalised [1, 3]: 1.25 and 1.21 and 1.24
Rel. Int. ([1]; protein SMARCA2 (P51531)): 0.52 and 0.45 and 0.40
average ([1]; protein SMARCA2 (P51531)): 0.46
log2 ([1]; protein SMARCA2 (P51531)): -1.12
Normalised ([1]; protein SMARCA2 (P51531)): 0.45 and 0.46 and 0.48
